In patent publication US12643887B2, “Heterocyclic derivatives with cardiomyocyte proliferation activity for treatment of heart diseases” (Tongji University, priority 2019, dated 2026):
Where two headings read alike, the source gives them in different places.

How the values were obtained:
[1] = target: T1, human CK2a2 (CSNK2a2) (Homo sapiens, UniProt P19784); assay: CK2a2 (CSNK2a2) enzyme assay (ADP-Glo); format: biochemical
T1 construct: Recombinant human CK2a2 (CSNK2a2) (full length); GST (N); purchased SignalChem C71-10G; host or cells: Sf9 insect cells
Method: 8. CK2a2 (CSNK2a2) Enzyme Assay
The ability of compounds to inhibit human CK2a2 (CSNK2a2) kinase activities was determined using a commercially available ADP-Glo™ Kinase Assay kit (Promega, Cat #V9102) according to the manufacturer's protocol.
Recombinant human CK2a2 (CSNK2a2) (full length) (expressed in Sf9 insect cells with an N-terminal GST tag) was purchased from SignalChem (Cat #C71-10G). CK2 substrate (sequence: […]) was purchased from SignalChem (Cat #C08-58). This assay, run in a 384-well plate format, is a generic method for measuring kinase activities using an ADP-Glo Kinase Assay Kit. The basic assay procedure involves two steps: (1) Enzymatic step: inhibitors are incubated with the kinase and then ATP (included in the ADP-Glo Kinase Assay Kit) and the MBP protein are added to start the enzymatic reaction; (2) Detection step: after the kinase reaction, first ADP-Glo™ Reagent is added to terminate the kinase reaction and deplete the remaining ATP. Second, the Kinase Detection Reagent is added to simultaneously convert ADP to ATP and allow the newly synthesized ATP to be measured using a luciferase/luciferin reaction. The light generated is measured using a luminometer.
(§1) Briefly, CK2a2 (CSNK2a2) (7 nM) in the enzymatic buffer solutions (40 mM Tris, pH 7.5, 20 mM MgCl2, 0.1 mg/ml BSA, 50 μM DTT) were mixed with various concentrations of inhibitors (dissolved in 100% DMSO). These solutions were incubated for 30 minutes at 25° C., and subsequently a mixture of substrate peptide and ATP was added with the final peptide and ATP concentrations at 0.04 mg/ml and 15 μM, respectively. The final reaction mixture of enzyme-substrate-ATP-compound was incubated for 90 minutes at 25° C.
(§2) Afterwards ADP-Glo™ Reagent was added and the mixture was incubated at 25° C. for 60 minutes. Then Kinase Detection Reagent was added, and the final mixture was incubated at 25° C. for 60 minutes. The luminescence signal of the final solution was measured on an Envision instrument (PerkinElmer). The percent (%) inhibition at each concentration of a compound is calculated relative to the luminescence signal in the Max and Min control wells contained within each assay plate. […] The concentrations and percent inhibition values for a test compound are plotted and the concentration of the compound required to achieve 50% inhibition (IC50) is determined with a four-parameter logistic dose response equation.

[2] = target: T2, human CIT (Homo sapiens, UniProt O14578); assay: CIT enzyme assay (ADP-Glo); format: biochemical
T2 construct: Recombinant human CIT (1-499); GST (N); purchased SignalChem C52-11G; host or cells: Sf9 insect cells
Method: The ability of compounds to inhibit human CIT kinase activities was determined using a commercially available ADP-Glo™ Kinase Assay kit (Promega, Cat #V9102) according to the manufacturer's protocol.
Recombinant human CIT (1-499) (expressed in Sf9 insect cells with an N-terminal GST tag) was purchased from SignalChem (Cat #C52-11G). Recombinant full length human MBP (expressed in E. Coli cells with an N-terminal GST tag) was purchased from SignalChem (Cat #M42-54G). This assay, run in a 384-well plate format, is a generic method for measuring kinase activities using an ADP-Glo Kinase Assay Kit. The basic assay procedure involves two steps: (1) Enzymatic step: inhibitors are incubated with the kinase and then ATP (included in the ADP-Glo Kinase Assay Kit) and the MBP protein are added to start the enzymatic reaction; (2) Detection step: after the kinase reaction, first ADP-Glo™ Reagent is added to terminate the kinase reaction and deplete the remaining ATP. Second, the Kinase Detection Reagent is added to simultaneously convert ADP to ATP and allow the newly synthesized ATP to be measured using a luciferase/luciferin reaction. The light generated is measured using a luminometer.
as §1, with “CIT (20” for “CK2a2 (CSNK2a2) (7”, “0.05” for “0.04”, “5” for “15”
as §2

[3] = ADP-Glo, ATP 15 μM, read-out: CK2 alpha 2 IC50
[4] = ADP-Glo, ATP 5 μM, read-out: CIT IC50

T2 sequence (O14578 1-499): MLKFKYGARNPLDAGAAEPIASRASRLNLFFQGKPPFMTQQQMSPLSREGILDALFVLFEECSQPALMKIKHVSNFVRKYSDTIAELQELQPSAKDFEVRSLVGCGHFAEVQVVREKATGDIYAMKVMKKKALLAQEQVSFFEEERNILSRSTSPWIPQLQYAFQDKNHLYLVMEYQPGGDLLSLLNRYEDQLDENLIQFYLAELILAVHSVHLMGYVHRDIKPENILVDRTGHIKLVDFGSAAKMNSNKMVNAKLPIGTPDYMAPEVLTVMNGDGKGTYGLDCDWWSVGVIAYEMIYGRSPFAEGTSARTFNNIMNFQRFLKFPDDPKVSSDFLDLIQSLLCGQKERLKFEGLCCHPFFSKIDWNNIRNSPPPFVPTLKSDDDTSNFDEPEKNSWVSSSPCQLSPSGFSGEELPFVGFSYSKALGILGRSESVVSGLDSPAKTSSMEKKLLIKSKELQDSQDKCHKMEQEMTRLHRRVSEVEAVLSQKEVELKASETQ
T1 sequence (P19784 whole entry): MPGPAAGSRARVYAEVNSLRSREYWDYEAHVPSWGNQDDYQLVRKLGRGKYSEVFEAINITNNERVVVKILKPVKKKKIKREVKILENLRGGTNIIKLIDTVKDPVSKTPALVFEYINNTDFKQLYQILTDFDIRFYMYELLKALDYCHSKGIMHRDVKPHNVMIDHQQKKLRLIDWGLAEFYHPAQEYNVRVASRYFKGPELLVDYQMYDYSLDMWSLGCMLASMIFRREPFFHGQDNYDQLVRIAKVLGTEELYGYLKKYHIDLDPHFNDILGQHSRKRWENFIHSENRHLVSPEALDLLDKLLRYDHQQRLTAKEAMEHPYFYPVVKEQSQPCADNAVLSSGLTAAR

Compound	IC50 [1, 3]	IC50 [2, 4]	IC50 [1]	IC50 [2]
CCN(C1=N/C(=C\c2ccc3c(c2)OCO3)C(=O)N1)c1ccccc1 [Example 4, (Z)-5-(benzo[d][1,3]dioxol-5-ylmethylene)-2-(ethyl(phenyl)amino)-3,5-dihydro-4H-imidazol-4-one]	100 to 1000 nM	> 10000 nM	–	–
CC(=O)N(C1=N/C(=C\c2ccc3c(c2)OCO3)C(=O)N1)c1ccccc1 [Example 5, (Z)—N-(4-(benzo[d][1,3]dioxol-5-ylmethylene)-5-oxo-4,5-dihydro-1H-imidazol-2-yl)-N-phenylacetamide]	–	–	< 100 nM	> 10000 nM
Cc1nc2ccc(NC3=N/C(=C\c4ccc5ncsc5c4)C(=O)N3)cc2s1 [Example 90, (Z)-5-(benzo[d]thiazol-6-ylmethylene)-2-((2-methylbenzo[d]thiazol-6-yl)amino)-3,5-dihydro-4H-imidazol-4-one]	< 100 nM	> 10000 nM	–	–
Nc1ccc(NC2=N/C(=C\c3ccc4ncsc4c3)C(=O)N2)cc1 [Example 98, (Z)-2-((4-aminophenyl)amino)-5-(benzo[d]thiazol-6-ylmethylene)-3,5-dihydro-4H-imidazol-4-one]	< 100 nM	100 to 1000 nM	–	–
